Source: patent publication US20160031909A1, “PORPHYRAZINE OPTICAL AND DUAL OPTICAL/ MR CONTRAST AND THERAPEUTIC AGENTS” (HOFFMAN/BARRETT, LLC, priority 2013, published 2016)
“Also recorded” adds a separate entry of the source. Like-named read-outs stand apart in the source and are kept apart here.

Experiments:
[1] = Octanol-water partition coefficients by ICP-MS; assay type: physicochemical; conditions: 1:1 water:1-octanol, 48 hours, Gd by ICP-MS
Method: Octanol-water partition coefficients (log P) were measured by ICP-MS to determine the hydrophilicity of the Pz-Gd(III) conjugates (4d, 18). The hydrophilicity of a molecule dictates cellular permeability where a balance in amphiphilicity is desired for ease of aqueous administration and maximum cellular uptake (19). Cu-Pz-Gd(III) is slightly more hydrophobic than Zn-Pz-Gd(III) and both conjugates are more hydrophobic than DOTA-Gd(III).
DOTA-Gd(I I I), Zn-Pz-Gd(III), and Cu-Pz-Gd(III) (0.5 mg) were dissolved in 1 mL of a 1:1 mixture of water:1-octanol, respectively. After shaking for 30 seconds, these tubes were placed on a rotator for gentle mixing to equilibrate for 48 hours. Gd(III) concentration in each layer was determined by ICP-MS. Partition coefficients were calculated from the equation log P=log(Co/Cw), where log P is the logarithm of the partition coefficient, Co is the concentration of Gd in the 1-octanol layer, and Cw is the concentration of Gd in the water layer.

[2] = tested on: MDA-MB-231 orthotopic breast tumor; assay: In vivo tumor MRI in orthotopic breast tumor model; design: species or system athymic nude mice; conditions: 0-225 min after tail vein injection; Cu-Pz-Gd(III) 450 nmol (50 mg/kg), DOTA-Gd(III) 900 nmol (25 mg/kg)
Method: Cu-Pz-Gd(III) was examined as a contrast agent in vivo in an orthotopic breast tumor model in athymic nude mice. MDA-MB-231 breast tumor cells expressing mCherry fluorescent protein were implanted in the mammary fat pad of mice and tumors were allowed to grow to about 5 mm in diameter at which time mice were treated with 450 nmol (50 mg/kg) Cu-Pz-Gd(III) together with saline treated control mice (FIG. 3A).
In a separate experiment focusing only on short time points (0-225 min), groups of mice (n=3) were treated with Cu-Pz-Gd(III) (450 nmol, 50 mg/kg), DOTA-Gd(I I I) (900 nmol, 25 mg/kg), and saline as a negative control (FIG. 4). Mice were imaged continuously after tail vein injections. […] Regions of interest (ROIs) were defined outside the periphery of tumors, at the inner rim, and at the center.
MDA-MB-231 cells (1×10^6) expressing mCherry fluorescent protein were inoculated subcutaneously (1:1 v/v matrigel:PBS) on the right mammary fat pad. Cells were maintained in DMEM media supplemented with 10% FBS prior to inoculation. The athymic nude mice, Crl:NU(NCr)-Foxnl^nm, were purchased from Charles River, Portage at 5-6 weeks old and 16-18 gram were allowed to acclimate for 5 days. One week post inoculation, each animal was screened for mCherry fluorescence wavelength using the IVIS small animal fluorescence imaging system to verify presence of the tumor.
Mice were anesthetized in an induction chamber with 3% inhaled isoflurane in oxygen, then transferred to an imaging bed with circulating warm water heating system, MRI compatible respiratory monitoring (SA Instruments, Stony Brook, N.Y.) and 1-2% isoflurane delivered via nosecone to maintain a surgical plane of anesthesia with respiratory rate at 90-100 breaths/min Mice were imaged prone with the tumor centered in a 40 mm diameter quadrature volume coil (Bruker Biospec, Billerica, Mass.). An AutoPac automated positioning system was used to reproducibly center the animals in the MRI system.
Mice were positioned in the MRI scanner as described above and localizer images were acquired. T1 maps were acquired using a FAIR-RARE non-selective inversion recovery sequence with static TR (18,000 ms) and TE (6.1 ms), and variable TI (30.5, 100, 200, 300, 500, 600, 700, 800, 900, 1000, 1100, 1200, 1300, 1400, 1600, 2000, 2500, 3000, 3500, 4000, 4500, 5000, and 6000 ms). Imaging parameters were as follows: field of view (FOV)=40×20 mm^2, matrix size(MTX)=512×133 pixels, number of slices=1, slice thickness=1.0 mm, and 1 average (total scan time=5 m 26 s).
Images were acquired at baseline, and 4, 24, and 48 hours after injection of 150 μL of imaging agent via the tail vein. One control animal was injected with saline; the remaining 9 animals were injected with 450 nmol Cu-Pz-Gd(III). Three animals were sacrificed after 4 hour, 24 hour, and 48 hour timepoints, respectively; the organs were collected for ICP-MS (described below) to measure biodistribution.
Mice were positioned in the MRI scanner as described above and localizer images were acquired. To improve signal to noise ratio, reduce respiratory artifacts, and increase tumor coverage, for this study we used a multi slice T1 map acquired using a variable repetition time saturation recovery sequence (RARE-VTR) with static TE (8.2 ms) and variable TR (175, 300, 600, 800, 1200, 2000, 4000 ms). Imaging parameters were as follows: FOV=10×7.5 mm, MTX=80×60, number of axial slices=5, slice thickness=1.0 mm, and 1 average (total scan time=6 min 48 sec). […]

[3] = monomeric DOTA-Gd(III), shown for comparison (ref 17), cited from earlier work
[4] = Relaxation time measurements (longitudinal relaxivity r1); assay type: physicochemical; conditions: water, 1.41 T (60 MHz), 37° C.
Description: The efficiency of a contrast agent in reducing the longitudinal relaxation time of water protons is defined in terms as relaxivity (mM^−1 s^−1) (14). It has been predicted by Solomon-Bloembergen-Morgan theory that a slow molecule tumbling of an MRI agent causes an increase in rotational correlation time, Tr, which in turn results in increase in relaxivity (14, 15). A common approach to increase relaxivity by slowing down the molecular tumbling is to attach Gd(III) complexes to a macromolecule through rigid linkages (12,16). The relaxivity of the monomeric DOTA-Gd(III) (DOTA is 1,4,7,10-tetraazacyclododecane-N,N,N″,N″-tetraacetic acid) used in the clinic is shown for comparison (17). […] Both the Zn-Pz-Gd(III) and Cu-Pz-Gd(III) had higher longitudinal relaxivity than DOTAGd(III).
Solutions of M-Pz-Gd(III) (M=Zn, Cu) conjugates were dissolved in 500 μL of filtered, deionized H20 (18.2 MΩ·cm) for T1 acquisition. Relaxation times were measured on a Bruker mq60 NMRanalyzer equipped with Minispec v2.51 Rev.00/NT software (Bruker Biospin, Billerica, Mass., USA) operating at 1.41 T (60 MHz) and 37° C. T1 relaxation times were measured using an inversion recovery pulse sequence (T1—ir_mb) using the following parameters: 4 scans per point, 10 data points for fitting, mono-exponential curve fitting, phase cycling, 10 ms first pulse separation, and a recycle delay and final pulse separation≧5 T1. The gadolinium concentrations of each solution were determined using ICP-MS. The inverse of the longitudinal relaxation time (1/ T1, s^−1) was plotted against gadolinium concentration (mM) and fitted to a straight line with an R^2>0.99. The slope of the fitted line was recorded as the relaxivity, r1.

Water solubility = assay type: physicochemical
Method: The pz platform is diol pz 285, which was prepared and activated for nucleophilic substitution by arenesulfonylation to produce bis-tosylate pz 286 as previously described (13). Subsequent nucleophilic substitution of pz 286 with excess sodium azide gave diazide pz 288, which was suitable for conjugation via cycloaddition reactions with the alkyne-functionalized Gd595. (Scheme 1). The use of catalytic copper(II) sulfate in this conjugation reaction partially metallates the pz core. To address this issue, pz 288 either was metallated with ZnCl2 prior to reaction with the alkyne or a stoichiometric amount of the […] catalyst was used to ensure that the pz core was completely cuprated. Standard cycloaddition reaction conditions were subsequently used to conjugate metallated pz diazides with Gd595 to produce Zn-Pz-Gd(III) and Cu-Pz-Gd(III) conjugates, which were isolated by preparative HPLC in 52% and 57% isolated yields, respectively. Trace amounts of Zn-Pz-Gd(III) were transmetallated to Cu-Pz-Gd(III), but this small amount was removed during purification.

Row | log P [1] | Ionic r1 ([4]; per Gd(III)) | Molecular r1 ([4]; per molecule (2 Gd(III))) | water solubility (Water solubility) | Compound | tumor T1 over time [2] | Molecular r1 ([3]; 1 Gd(III)) | Ionic r1 [3]
1 | −3.42 |  |  |  | O=C([O-])CN1CCN(CC(=O)[O-])CCN(CC(=O)O)CCN(CC(=O)[O-])CC1.[Gd+3] [DOTA-Gd(III), reference compound] | dips transiently but returns quickly to baseline; also recorded: enters the tumor, but is cleared relatively rapidly; also recorded: initial decrease in tumor T1 followed by recovery of signal | 3.1 mM^−1 S^−1 | 3.1 mM^−1 S^−1
2 | −3.13 | 6.9 mM^−1 S^−1 | 13.8 mM^−1 S^−1 | freely water soluble | Zn[Pz(C17H27N5O7Gd)2]. Pz=18,21-bis(2-(1H-1,2,3-triazole-4-yl) ethoxy)-tris-[1,4-dioxino[g,l,q](2R,3R)-2,3-dimethoxy-2,3-dimethyll 25H,27H-benzo[b]porphyrazine; C17H27N5O7Gd=N-methyl-2-aminoacetamide-4,7,10-tris(carboxymethyl)-1,4,7,10-tetraazacyclododecylgadolinium(III)) [Zn-Pz-Gd(III)] |  |  | 
